Test results taken from paper PMC12638379, “An innovative approach to development of new pyrazolylquinolin-2-one hybrids as dual EGFR and BRAF^V600E inhibitors” (Molecular Diversity, 2025).
Like-named read-outs stand apart in the source and are kept apart here.

Test system: NCI 60 cancer cell lines
Assay: NCI anticancer screening over a panel of 60 cancer cells, single concentration 10 µM
Type: cell-based, human
Details: Homo sapiens, read-out: % Growth Inhibition (GI %)
Summary of the method: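 Primary single-dose screen at 10 µM over the NCI panel of 60 human tumour cell lines (leukemia, CNS, lung, colon, kidney, ovary, breast, prostate). The standard NCI Developmental Therapeutics Program protocol was used.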

[1] = 786-0, Renal cancer 786-0, 10 μM
[2] = A549, Non-small cell lung cancer A549/ATCC, 10 μM
[3] = BT-549, Breast cancer BT-549, 10 μM
[4] = CAKI-1, Renal cancer CAKI-1, 10 μM
[5] = CCRF-CEM, Leukemia CCRF-CEM, 10 μM
[6] = COLO 205, Colon cancer COLO 205, 10 μM
[7] = DU-145, Prostate cancer DU-145, 10 μM
[8] = HCC 2998, Colon cancer HCC-2998, 10 μM
[9] = HCT-15, Colon cancer HCT-15, 10 μM
[10] = HCT-116, Colon cancer HCT-116, 10 μM
[11] = HL-60, Leukemia HL-60(TB), 10 μM
[12] = HOP-62, Non-small cell lung cancer HOP-62, 10 μM
[13] = HOP-92, Non-small cell lung cancer HOP-92, 10 μM
[14] = HT-29, Colon cancer HT29, 10 μM
[15] = Hs-578T, Breast cancer HS 578T, 10 μM
[16] = IGROV-1, Ovarian cancer IGROV1, 10 μM
[17] = LOX IMVI, Melanoma LOX IMVI, 10 μM
[18] = MCF7, Breast cancer MCF7, 10 μM
[19] = MDA-MB-231, Breast cancer MDA-MB-231/ATCC, 10 μM
[20] = MDA-MB-435, Melanoma MDA-MB-435, 10 μM
[21] = MDA-MB-468, Breast cancer MDA-MB-468, 10 μM
[22] = NCI-H23, Non-small cell lung cancer NCI-H23, 10 μM
[23] = NCI-H226, Non-small cell lung cancer NCI-H226, 10 μM
[24] = NCI-H322M, Non-small cell lung cancer NCI-H322M, 10 μM
[25] = NCI-H460, Non-small cell lung cancer NCI-H460, 10 μM
[26] = NCI-H522, Non-small cell lung cancer NCI-H522, 10 μM
[27] = NCI/ADR-RES, Ovarian cancer NCI/ADR-RES, 10 μM
[28] = OVCAR-4, Ovarian cancer OVCAR-4, 10 μM
[29] = OVCAR-5, Ovarian cancer OVCAR-5, 10 μM
[30] = OVCAR-8, Ovarian cancer OVCAR-8, 10 μM
[31] = RPMI-8226, Leukemia RPMI-8226, 10 μM
[32] = RXF 393, Renal cancer RXF 393, 10 μM
[33] = SF-268, CNS Cancer SF-268, 10 μM
[34] = SF-295, CNS Cancer SF-295, 10 μM
[35] = SF-539, CNS Cancer SF-539, 10 μM
[36] = SK-MEL-2, Melanoma SK-MEL-2, 10 μM
[37] = SK-MEL-5, Melanoma SK-MEL-5, 10 μM
[38] = SK-MEL-28, Melanoma SK-MEL-28, 10 μM
[39] = SK-OV-3, Ovarian cancer SK-OV-3, 10 μM
[40] = SN12C, Renal cancer SN12C, 10 μM
[41] = SNB-19, CNS Cancer SNB-19, 10 μM
[42] = SNB-75, CNS Cancer SNB-75, 10 μM
[43] = SW-620, Colon cancer SW-620, 10 μM
[44] = T47D, Breast cancer T-47D, 10 μM
[45] = TK-10, Renal cancer TK-10, 10 μM
[46] = UACC-62, Melanoma UACC-62, 10 μM
[47] = UACC-257, Melanoma UACC-257, 10 μM
[48] = UO-31, Renal cancer UO-31, 10 μM

In the case of `C/C(=N\Nc1ccc(S(N)(=O)=O)cc1)c1cnn(-c2cc(=O)[nH]c3ccccc23)c1C` [Compound 4a, (E)-4-(2-(1-(5-methyl-1-(2-oxo-1,2-dihydroquinolin-4-yl)-1H-pyrazol-4-yl)ethylidene) hydrazineyl)benzenesulfonamide], the inhibition at 10 µM [1] is reported as 11.6%, the inhibition at 10 µM [2] is reported as less than 5% and the inhibition at 10 µM (ACHN, Renal cancer ACHN, 10 μM) is reported as less than 5%. For the same compound, the inhibition at 10 µM [3] was 34.3%, the inhibition at 10 µM [4] was 5.51% and the inhibition at 10 µM [5] was 7.82%. The inhibition at 10 µM [6] was less than 5%, the inhibition at 10 µM [7] was less than 5% and the inhibition at 10 µM [8] was less than 5%. It also gave an inhibition at 10 µM [9] of less than 5%, an inhibition at 10 µM [10] of less than 5% and an inhibition at 10 µM [11] of less than 5%. It also gave an inhibition at 10 µM [12] of 7.49%, an inhibition at 10 µM [13] of less than 5% and an inhibition at 10 µM [14] of less than 5%. For the same compound, the inhibition at 10 µM [15] was 19.4%, the inhibition at 10 µM [16] was less than 5% and the inhibition at 10 µM (K562, Leukemia K-562, 10 μM) was less than 5%. It also gave an inhibition at 10 µM (KM12, Colon cancer KM12, 10 μM) of less than 5%, an inhibition at 10 µM [17] of 5.22% and an inhibition at 10 µM (Leukemia SR, 10 μM) of 12.7%. It also gave an inhibition at 10 µM [18] of 13.9%, an inhibition at 10 µM [19] of 17.7% and an inhibition at 10 µM [20] of less than 5%. For the same compound, the inhibition at 10 µM [21] was 24.8%, the inhibition at 10 µM (MOLT-4, Leukemia MOLT-4, 10 μM) was less than 5% and the inhibition at 10 µM (Melanoma MALM-3M, 10 μM) was 30.1%. For the same compound, the inhibition at 10 µM [22] was less than 5%, the inhibition at 10 µM [23] was 14.7% and the inhibition at 10 µM [24] was 6.78%. It also gave an inhibition at 10 µM [25] of less than 5%, an inhibition at 10 µM [26] of 18.9% and an inhibition at 10 µM [27] of less than 5%. It also gave an inhibition at 10 µM [28] of 11.4%, an inhibition at 10 µM [29] of less than 5% and an inhibition at 10 µM [30] of less than 5%. The inhibition at 10 µM (Prostate cancer PC-3, 10 μM) was 8.46%, the inhibition at 10 µM [31] was 11.2% and the inhibition at 10 µM [32] was less than 5%. The inhibition at 10 µM [33] was 14%, the inhibition at 10 µM [34] was 5.93% and the inhibition at 10 µM [35] was 8.96%. For the same compound, the inhibition at 10 µM [36] was 12%, the inhibition at 10 µM [37] was 8.23% and the inhibition at 10 µM [38] was 6.43%. It also gave an inhibition at 10 µM [39] of less than 5%, an inhibition at 10 µM [40] of less than 5% and an inhibition at 10 µM [41] of 9.13%. The inhibition at 10 µM [42] was 10.1%, the inhibition at 10 µM [43] was less than 5% and the inhibition at 10 µM [44] was 24.7%. For the same compound, the inhibition at 10 µM [45] was less than 5%, the inhibition at 10 µM (U-251, CNS Cancer U251, 10 μM) was 7.57% and the inhibition at 10 µM [46] was 8.54%. For the same compound, the inhibition at 10 µM [47] was less than 5% and the inhibition at 10 µM [48] was 22.6%.

`C/C(=N\Nc1ccc(C(=O)O)cc1)c1cnn(-c2cc(=O)[nH]c3ccc(Br)cc23)c1C` [Compound 4j, (E)-4-(2-(1-(1-(6-bromo-2-oxo-1,2-dihydroquinolin-4-yl)-5-methyl-1H-pyrazol-4-yl)ethylidene)hydrazineyl)benzoic acid] showed an inhibition at 10 µM [1] of less than 5%, an inhibition at 10 µM (A498, Renal cancer A498, 10 μM) of less than 5% and an inhibition at 10 µM [2] of less than 5%. The inhibition at 10 µM (ACHN, Renal cancer ACHN, 10 μM) was less than 5%, the inhibition at 10 µM [3] was less than 5% and the inhibition at 10 µM [4] was 14.7%. For the same compound, the inhibition at 10 µM [5] was less than 5%, the inhibition at 10 µM [6] was less than 5% and the inhibition at 10 µM [7] was less than 5%. It also gave an inhibition at 10 µM (EKVX, Non-small cell lung cancer EKVX, 10 μM) of 6.05%, an inhibition at 10 µM [8] of less than 5% and an inhibition at 10 µM [9] of less than 5%. It also gave an inhibition at 10 µM [10] of less than 5%, an inhibition at 10 µM [11] of 7.02% and an inhibition at 10 µM [12] of 5.55%. For the same compound, the inhibition at 10 µM [13] was less than 5%, the inhibition at 10 µM [14] was less than 5% and the inhibition at 10 µM [15] was 11.7%. For the same compound, the inhibition at 10 µM [16] was less than 5%, the inhibition at 10 µM (K562, Leukemia K-562, 10 μM) was less than 5% and the inhibition at 10 µM (KM12, Colon cancer KM12, 10 μM) was less than 5%. The inhibition at 10 µM [17] was less than 5%, the inhibition at 10 µM (Leukemia SR, 10 μM) was 7.14% and the inhibition at 10 µM [18] was less than 5%. It also gave an inhibition at 10 µM [19] of 17%, an inhibition at 10 µM [20] of less than 5% and an inhibition at 10 µM [21] of less than 5%. For the same compound, the inhibition at 10 µM (MOLT-4, Leukemia MOLT-4, 10 μM) was less than 5%, the inhibition at 10 µM (Melanoma M14, 10 μM) was less than 5% and the inhibition at 10 µM (Melanoma MALM-3M, 10 μM) was 14.4%. For the same compound, the inhibition at 10 µM [22] was less than 5%, the inhibition at 10 µM [23] was 5.42% and the inhibition at 10 µM [24] was less than 5%. It also gave an inhibition at 10 µM [25] of less than 5%, an inhibition at 10 µM [26] of less than 5% and an inhibition at 10 µM [27] of less than 5%. It also gave an inhibition at 10 µM (OVCAR-3, Ovarian cancer OVCAR-3, 10 μM) of less than 5%, an inhibition at 10 µM [28] of less than 5% and an inhibition at 10 µM [29] of less than 5%. For the same compound, the inhibition at 10 µM [30] was less than 5%, the inhibition at 10 µM (Prostate cancer PC-3, 10 μM) was less than 5% and the inhibition at 10 µM [31] was less than 5%. The inhibition at 10 µM [32] was less than 5%, the inhibition at 10 µM [33] was less than 5% and the inhibition at 10 µM [34] was less than 5%. For the same compound, the inhibition at 10 µM [35] was 7.41%, the inhibition at 10 µM [36] was less than 5% and the inhibition at 10 µM [37] was less than 5%. It also gave an inhibition at 10 µM [38] of less than 5%, an inhibition at 10 µM [39] of 4.08% and an inhibition at 10 µM [40] of less than 5%. The inhibition at 10 µM [41] was less than 5%, the inhibition at 10 µM [42] was 17.2% and the inhibition at 10 µM [43] was less than 5%. For the same compound, the inhibition at 10 µM [44] was 7.76%, the inhibition at 10 µM [45] was less than 5% and the inhibition at 10 µM (U-251, CNS Cancer U251, 10 μM) was less than 5%. The inhibition at 10 µM [46] was 6.6%, the inhibition at 10 µM [47] was less than 5% and the inhibition at 10 µM [48] was 39.3%.
